Here are results for 4 compounds from patent US12600740B2, “Fluorinated N-acetyl glucosamine analogs and xylose derivatives” (UTI Limited Partnership, priority 2018, dated 2026).

Entries after “also recorded” stand apart in the source; their conditions may differ. Counter-ions that a name gives are not always drawn.

Data set [1] concerns CSPG production by astrocytes. The data set is described as follows: Western blot of astrocyte conditioned medium, MAB2030 (chondroitin sulfate GAG stubs). It counts as cell-based, mouse. The conditions noted are these: astrocyte conditioned media, 50 μM, 48 hours. From the text:
Astrocytes are major producers of CSPGs following injury in the CNS [Jones, L. L., Margolis, R. U. & Tuszynski, M. H. The chondroitin sulfate proteoglycans neurocan, brevican, phosphacan, and versican are differentially regulated following spinal cord injury. Experimental Neurology 182, 399-411 (2003); Tang, X., Davies, J. E. & Davies, S. J. Changes in distribution, cell associations, and protein expression levels of NG2, neurocan, phosphacan, brevican, versican V2, and tenascin-C during acute to chronic maturation of spinal cord scar tissue. […] The Journal of neuroscience: the official journal of the Society for Neuroscience 20, 2427-2438 (2000); McKeon, R. J., Jurynec, M. J. & Buck, C. R. The chondroitin sulfate proteoglycans neurocan and phosphacan are expressed by reactive astrocytes in the chronic CNS glial scar. The Journal of neuroscience: the official journal of the Society for Neuroscience 19, 10778-10788 (1999); Haas, C. A., Rauch, U., Thon, N., Merten, T. & Deller, T. Entorhinal cortex lesion in adult rats induces the expression of the neuronal chondroitin sulfate proteoglycan neurocan in reactive astrocytes. The Journal of neuroscience: the official journal of the Society for Neuroscience 19, 9953-9963 (1999)] and they may help drive progression of disability in a model of progressive MS [Mayo, L. et al. Regulation of astrocyte activation by glycolipids drives chronic CNS inflammation. Nature medicine 20, 1147-1156 (2014)]. Therefore astrocytes were used as model cells to determine the ability of the sugar analogs to reduce synthesis of CSPGs. Since CSPGs are exported out of cells, the conditioned media from analog-treated astrocytes were probed by Western blots (FIG. 4). We used antibodies to both the stubs of chondroitin sulfate GAGs attached to the core protein (MAB2030) and to intact 4-sulfated chondroitin sulfate sidechains (2H6) (FIG. 4a). Particularly, we used the 2H6 antibody to label intact 4-sulfated chondroitin sulfate sidechains, and the MAB2030 antibody to detect the stubs of chondroitin sulfate GAGs attached to the core protein. […] 1998, 160 (8), 3812-3819. Poole Poole C. A.; Glant T. T.; Schofield J. R.; Chondrons from articular cartilage. (IV). Immunolocalization of proteoglycan epitopes in isolated canine tibial chondrons. J. Histochem. Cytochem. 1991, 39 (9), 1175-1187].
Astrocytes were plated in uncoated 6-well plates (3 replicate wells per treatment) at 1×10^6 cells/well in mixed glial media, and incubated at 5% CO2 and 37° C. Astrocytes were treated with compounds at 50 μM in AIM-V media for 48 hours. Media was pooled from 3 replicate wells in 15 ml 100K cutoff centricon tubes (EMD Millipore, #UFC905008), which were spun on an ultracentrifuge at 5000× g for 2 cycles of 10 minutes each. When harvested, the cell lysate was kept on ice for 5 minutes with 250 μL of RIPA buffer (ThermoFisher Scientific #89900) containing proteinase inhibitor, and then collected and centrifuged at 14000 g for 5 minutes. Total protein was quantified using a Bradford assay. Conditioned media that were to be probed for chondroitin 4-sulfate GAGs (Millipore, #MAB2030) were first digested with 0.2 U/ml chondroitinase ABC for overnight at 37° C. to remove chondroitin sulfate sidechains. Blots that were to be probed with CSA (2H6, Cosmo) or CS56 (Abcam #ab11570) were not exposed to chondroitinase ABC. Samples were heat denatured with NuPAGE® LDS Sample buffer at 70° C. for 10 minutes and then loaded into 3-8% tris-acetate pre-cast gels (ThermoFisher, #EA0478BOX). The gels were electrophoresed at a constant 150 V for 90 minutes and transferred to a […] polyvinylidene fluoride membrane at a constant 250 mA for 60 minutes. The membranes were blocked for one hour with 10% skim milk in Tris-buffered saline (TBS; 0.9% NaCl, 10 mM Tris-HCl, pH 7.5) containing 0.5% Tween 20 (TBS-T). Primary antibodies were added in 3% skim milk and incubated overnight at 4° C. […]
Background: Immunoblotting shows a protein as a band on a membrane.

Data set [2] has as its system oligodendrocyte precursor cells (OPCs). Briefly: Growth of OPCs on astrocyte-secreted extracellular matrix. It counts as cell-based, mouse. The note with it: astrocytes treated 48 hours, then removed; OPCs plated on matrix. From the text: The process of remyelination requires oligodendrocyte lineage cells to undergo process outgrowth prior to their expression of mature myelin proteins for repair. Thus, process outgrowth in culture by cells of the oligodendrocyte lineage has been used as one surrogate for myelinating potential in vivo [Keough, M. B.; Rogers, J. A.; Zhang, P.; Jensen, S. K.; Stephenson, E. L.; Chen, T.; Hurlbert, M. G.; Lau, L. W.; Rawji, K. S.; Plemel, J. R. et al. An inhibitor of chondroitin sulfate proteoglycan synthesis promotes central nervous system remyelination. Nat. Commun. 2016, 7, 11312], since an oligodendrocyte needs to elaborate multiple protrusions emanating in several directions to contact many axons, and where these processes then compact around axons to form myelin segments. The presence of CSPGs in culture impairs the process outgrowth of OPCs, and this has been linked to reduced remyelination capacity in vivo [Keough, M. B.; Rogers, J. A.; Zhang, P.; Jensen, S. K.; Stephenson, E. L.; Chen, T.; Hurlbert, M. G.; Lau, L. W.; Rawji, K. S.; Plemel, J. R. et al. An inhibitor of chondroitin sulfate proteoglycan synthesis promotes central nervous system remyelination. Nat. Commun. 2016, 7, 11312]. It was reported previously that astrocytes in culture produce a plate-bound matrix abundant in CSPGs, that is left behind once astrocytes are removed from the plate, and this CSPG-containing matrix inhibits the outgrowth of plated OPCs [Keough, M. B. et al. An inhibitor of chondroitin sulfate proteoglycan synthesis promotes central nervous system remyelination. Nature communications 7, 11312 (2016)] (FIG. 7a). Thus, astrocytes were treated with test compounds for 48 hours and they were then removed from the cell culture plate leaving only their secreted ECM behind (FIG. 7a). When OPCs were plated on the astrocyte matrix, the extent of their process outgrowth over […] of observation was inhibited (FIG. 7b). […] OPCs growing in the absence of astrocyte ECM can reach a mean outgrowth around 300 μm (FIG. 7b,c). […] These compounds were: Ac-4,4-diF-GlcNAc 16 (Ac-4,4-diF-GlcNAc), fluorosamine 3 and its O1-deacetylated analog 10 (Ac-4-F-GlcNAcOH), anomeric O-propanoate 7, anomeric O-butanoate 8 (Ac-4-F-GlcNAcOBu), and the 4-fluorinated GalNAc derivative 13 (Ac-4-F-GalNAc) (FIG. 7c).
In brief, cortices from postnatal days 1-3 mouse brains were dissociated with papain digestion and then plated as a mixed culture for 7 days in a 37° C. incubator at 8.5% CO2 whereupon OPCs and microglia tended to be loosely attached on top of a monolayer of astrocytes; the OPCs and microglia were then shaken off when placed on an orbital shaker at 220 r.p.m. at 37° C. and 5% CO2 overnight. The media containing microglia and OPCs were collected and added to a 100 mm tissue culture dish and left at 37° C. and 5% CO2 for 30 min, to allow preferential adhesion of microglia. The media were collected again, now containing OPCs, and used as the OPC-enriched isolates for experiments. For the remaining adhered cells, largely astrocytes, these were removed with 0.25% trypsin and after centrifugation and washing, these astrocytes were plated at a density of 1.0×10^5 cells in flat bottom 96-well plates coated with 10 μg/ml poly-L-lysine. Cells were grown for 7 days at 37° C. and 5% CO2 in MGM and daily media changes. Astrocytes were carefully removed with EDTA treatment (0.2 g EDTA (Na4) per liter PBS, 30 minutes at 37° C. and 5% CO2) and mechanical dislodgement with a micropipetter. The remaining ECM left behind was covered with PBS at 4° C. until OPCs were seeded. Enriched OPCs from mixed glial cultures were seeded at a density of 5-10×10^4 cells per well in OPC media and grown at 37° C. and 8.5% CO2 for 18-24 h and then were fixed with 4% ice-cold paraformaldehyde at 4° C. for 10 min, rinsed with PBS, and stored at 4° C. until immunocytochemistry. […]

Data set [3] deals with TNFα. The data set is described as follows: TNFα ELISA of LPS-stimulated bone marrow-derived macrophages. The note with it: BMDMs, 50 μM, LPS 100 ng/ml, 24 hours. It counts as cell-based, mouse. Here is the method:
Multiple Sclerosis: Mechanisms and Immunotherapy. Neuron 97, 742-768 (2018)]. It was tested whether the sugar analogs could affect the activity of macrophages, using bone marrow-derived macrophages (BMDMs) stimulated with lipopolysaccharide (LPS, 100 ng/ml). The sugar analogs were added at 50 μM prior to LPS, and the conditioned medium was collected after 24 hours and assayed for levels of the secreted cytokine TNFα. […] Testing Toxicity of Sugar Analogs
Femurs were carefully removed from euthanized female C57BI/6 mice, and marrow was flushed into a culture plate with cold complete bone marrow growth medium (DMEM, 10% fetal bovine serum, and the supplements 1% penicillin/streptomycin, 1% glutamine, 1% non-essential amino acids, and 10% supernatant from L929 cell-line enriched in macrophage-colony stimulating factor). Cells were spun at 1100 rpm for 10 minutes, resuspended in fresh growth medium and plated at 10×10^6 cells/ml in a 10 cm culture dish. Cells were grown in DMEM with supplements and L929 supernatant for 5 days, then half the medium was replaced with fresh growth medium. On day 7 growth medium was replaced with DMEM with 10% FBS and supplements. Cells were used on day 8, and experiments were conducted in DMEM with 1% FBS and supplements unless otherwise specified.
BMDM were plated at 25,000 cells in 96-well plates in DMEM+L929 media. After 24 hours media was changed to DMEM+1% FBS. One hour later, cells were treated with […] compounds or PBS. After 1 hour LPS (final concentration 100 ng/ml) was added. Following 24 hours, conditioned media was harvested for TNFα ELISA (Thermo Scientific), which was performed according to manufacturer's instructions.
In general terms: In an ELISA, binding on a coated surface is turned into a signal by an enzyme label.

The test system of data set [4] is mouse astrocytes. Briefly: Propidium iodide/calcein AM toxicity on astrocytes. The format is cell-based. The conditions noted are these: 100 μM, 48 hours. The protocol:
Toxicity on astrocytes was assayed with propidium iodide/calcein AM […]. Live cells convert calcein AM into a green fluorescent product, whereas dying/dead cells are stained with propidium iodide.
96-well plates were imaged with ImageXpress® Micro Cellular Imaging and Analysis System (Molecular Devices, Sunnyvale, CA). Twelve images per well were collected at ×10 magnification. Images were processed with MetaXpress analysis software. OPC outgrowth was calculated by the MetaExpress® “neurite outgrowth” software module which uses fluorescence and user-modified parameters to document the overall extent of processes emanating from the cell soma, regardless of size of the protrusions or the number of branches. This was previously detailed elsewhere [Cua, R. C.; Lau, L. W.; Keough, M. B.; Midha, R.; Apte, S. S.; and Yong, V. W. Overcoming neurite-inhibitory chondroitin sulfate proteoglycans in the astrocyte matrix. Glia 2013, 61 (6), 972-84]. Live-dead cell assay was calculated with MetaXpress analysis software with the “multiwavelength cell scoring”, which uses fluorescent intensity to measure co-localization of calcein AM, propidium iodide, and […]. Data from the 12 images were averaged to a single data point per well, wherein the OPC outgrowth data calculated from the MetaExpress® “neurite outgrowth” readout was divided by data from the same 12 fields of cell number that was acquired through the multiwavelength cell scoring. This provided mean outgrowth per cell per well, with four well replicates per treatment. Experiments were repeated at least twice.
A mixture was created containing propidium iodide (10 μg/ml) to stain dead cells, 10 μM Calcein AM (ThermoFisher, #C3100MP) to identify live cells, and 2 drops per ml of media of NucBlue™ Live ReadyProbes™ Reagent (ThermoFisher, #R37605) to identify nuclei. The mixture was added to plate media and incubated for 20-30 minutes at 37° C. and 5% CO2 before imaging. Excitation/emission of calcein-AM (λex 490 nm, λem 515 nm), propidium iodide (λex 535 nm, λem 617 nm), and nuclear blue (λex 350 nm, λem 461 nm) was performed using ImageXpress® Micro Cellular Imaging and Analysis System (Molecular Devices, Sunnyvale, CA) and analyzed by MetaExpress multiwavelength cell scoring program.

In the case of `CC(=O)NC1C(OC(C)=O)OC(C(F)F)[C@@H](OC(C)=O)C1OC(C)=O` (stereo in doubt) [Compound 18, 2-acetamido-1,3,4-tri-O-acetyl-2,6-dideoxy-6,6-difluoro-α/β-D-glucopyranose], in data set [1], the “effect on CSPG production by astrocytes” value is “did not decrease CSPG production in astrocytes”. Further, the “mean process outgrowth of OPCs on astrocyte ECM” value in data set [2] is given as “significantly enhanced OPC outgrowth”.

Regarding `CC(=O)O[C@@H]1[C@@H](OC(C)=O)[C@H](OCCCCCCS(=O)(=O)O)OC[C@H]1OC(C)=O` [Compound 23, 6-Sulfohexyl 2,3,4-tri-O-acetyl-β-D-xylopyranoside, sodium salt], the “effect on CSPG production by astrocytes” value in data set [1] (sodium salt) was “CSPG production was not impacted; also recorded: did not decrease CSPG production in astrocytes”. For the same compound, the “mean process outgrowth of OPCs on astrocyte ECM” value in data set [2] is “significantly enhanced OPC outgrowth”.

In the case of `CC(=O)O[C@H]1OC[C@@H](F)[C@H](OC(C)=O)[C@H]1OC(C)=O` [Compound 27, 1,2,3-Tri-O-acetyl-4-deoxy-4-fluoro-α-D-xylopyranose], the “effect on CSPG production by astrocytes” value in data set [1] is “did not reduce CSPG production”. Moreover, the “TNFα production by LPS-stimulated macrophages” value in data set [3] is given as “enhanced TNFα levels”.

Take `OO` [Compound H2O2, reference compound]: the “toxicity on astrocytes (propidium iodide/calcein AM)” value in data set [4] is given as “caused a significant increase in toxicity; also recorded: caused increase in propidium iodide-positive staining”.
